Positions count from the first letter of the chain named.
Experiments:
αWT β-αWT GlyR = target: T1, αWT β-αWT GlyR (Homo sapiens, UniProt P23415+P48167, A275I/A296P/F268Y/G272Q/L286I/M270L/M271I/P292M/P300G/S295A/T277S/V266M/V273M/V282I); assay type: cell-based
T1 construct: The α R218-Q219 and β R242-Q243 are also the joining sites for chimeras constructed between the ECD and TMD; expressed in transfected cells; host or cells: HEK293 (ATCC)
T1 sequence (P23415 29-449 isoform P23415-2): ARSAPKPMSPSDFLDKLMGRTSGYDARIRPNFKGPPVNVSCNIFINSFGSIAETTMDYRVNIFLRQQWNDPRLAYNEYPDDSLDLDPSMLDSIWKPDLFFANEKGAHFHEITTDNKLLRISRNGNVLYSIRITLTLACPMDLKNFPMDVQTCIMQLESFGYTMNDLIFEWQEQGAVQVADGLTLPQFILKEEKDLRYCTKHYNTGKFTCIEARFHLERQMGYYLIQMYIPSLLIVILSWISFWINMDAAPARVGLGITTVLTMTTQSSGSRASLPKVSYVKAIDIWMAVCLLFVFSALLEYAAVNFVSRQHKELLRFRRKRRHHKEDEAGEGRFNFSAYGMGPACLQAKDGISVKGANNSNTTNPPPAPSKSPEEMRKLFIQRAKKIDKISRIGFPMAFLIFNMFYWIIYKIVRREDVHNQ
T1 sequence (P48167+P23415 with tags, fused parts or gaps P48167:V266M/P48167:F268Y/P48167:M270L/P48167:M271I/P48167:G272Q/P48167:V273M/P48167:A275I/P48167:T277S/P48167:V282I/P48167:L286I/P48167:P292M/P48167:S295A/P48167:A296P/P48167:P300G): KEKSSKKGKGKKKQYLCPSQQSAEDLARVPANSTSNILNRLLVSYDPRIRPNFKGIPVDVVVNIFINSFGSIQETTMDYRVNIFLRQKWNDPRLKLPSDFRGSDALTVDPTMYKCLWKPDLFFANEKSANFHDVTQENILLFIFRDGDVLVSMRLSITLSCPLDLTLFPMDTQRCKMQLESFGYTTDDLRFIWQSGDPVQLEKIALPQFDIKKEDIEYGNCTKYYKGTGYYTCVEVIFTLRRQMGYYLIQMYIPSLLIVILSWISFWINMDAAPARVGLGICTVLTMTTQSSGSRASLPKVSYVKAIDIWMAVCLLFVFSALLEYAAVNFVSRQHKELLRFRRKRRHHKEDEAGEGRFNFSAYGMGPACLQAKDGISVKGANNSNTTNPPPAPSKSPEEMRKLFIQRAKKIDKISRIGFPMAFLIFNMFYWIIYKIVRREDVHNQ
Method: (§1) The human GlyR α1 and β subunit cDNAs were subcloned into the pcDNA3.1zeo+ (Invitrogen) or pGEMHE [44] plasmid vectors for expression in HEK293 cells or Xenopus oocytes, respectively. Site-directed mutagenesis and chimera construction were performed using the QuickChange (Stratagene, La Jolla, CA, USA) mutagenesis and multiple-template-based sequential PCR protocols, respectively.
(§2) For the β-α chimeras used for determining the effect of hyperekplexia-mimicking mutations on α1 β GlyR channel function, the Thr at the M2 6′ position was replaced by a Cys. […] Through such a modification, picrotoxin resistance was used to distinguish the heteromeric α1 β-α GlyR from the homomeric α1 GlyR when the α1 and β-α subunits were co-expressed.
(§3) The effects of the hyperekplexia-mimicking mutations, K24′A, V25′A and Y27′A, were examined on GlyRs expressed in HEK293 cells (ATCC). Details of the HEK293 cell culture, GlyR expression and electrophysiological recording of the HEK293 cells are described elsewhere. Briefly, HEK293 cells were maintained in DMEM supplemented with 10% fetal bovine serum. Cells were transfected using a calcium phosphate precipitation protocol. When co-transfecting the α1 together with the β or any other chimera subunits, their respective cDNAs were combined in a ratio of 1∶10. In addition, the pEGFP-N1 (Clontech) was co-transfected to facilitate identifying the transfected cells. […] Cells were treated with external Ringer's solution and internal CsCl solution [30]. Cells were voltage-clamped at −40 mV. When the heteromeric GlyRs were expressed, the picrotoxin sensitivity was tested to confirm that the majority of receptors are heteromers, [30].
(§4) Results are expressed as mean±standard error of the mean of three or more independent experiments. […] Statistical significance was determined using the Student's t-test.

αK24′A β-αWT GlyR = target: T2, αK24′A β-αWT GlyR (Homo sapiens, UniProt P23415+P48167, K304A); assay type: cell-based
T2 construct: The α R218-Q219 and β R242-Q243 are also the joining sites for chimeras constructed between the ECD and TMD; expressed in transfected cells; host or cells: HEK293 (ATCC)
T2 sequence (P23415 29-449 isoform P23415-2 K304A): T1 sequence (P23415 29-449 isoform P23415-2) with K276A
T2 sequence (P48167+P23415 with tags, fused parts or gaps P48167:V266M/P48167:F268Y/P48167:M270L/P48167:M271I/P48167:G272Q/P48167:V273M/P48167:A275I/P48167:T277S/P48167:V282I/P48167:L286I/P48167:P292M/P48167:S295A/P48167:A296P/P48167:P300G): T1 sequence (P48167+P23415 with tags, fused parts or gaps P48167:V266M/P48167:F268Y/P48167:M270L/P48167:M271I/P48167:G272Q/P48167:V273M/P48167:A275I/P48167:T277S/P48167:V282I/P48167:L286I/P48167:P292M/P48167:S295A/P48167:A296P/P48167:P300G)
Method: as §1, §2, §3, §4

α19′C βWT GlyR = α19′C βWT GlyR (Homo sapiens, UniProt P23415+P48167, C137A/C313A/C69A/R299C); details: MTSR-labeled, oocytes
Method: as §1
For the VCF experiments, both GlyR α1 and β subunit cDNAs in the pGEMHE vector were mutated to substitute non-essential background cysteines with alanines, including α1C41A and βC115AC291A [46], [47].
VCF experiments were performed on GlyRs expressed in Xenopus laevis oocytes. Female Xenopus laevis frogs were purchased from Xenopus Express, France. Details of oocyte preparation, GlyR expression and VCF recording are described elsewhere. Briefly, the mMessage mMachine kit (Ambion, Austin, TX) was used to generate capped mRNA. The mRNA was injected into oocytes of the female Xenopus laevis frog with 10 ng (1 ng α1 and 9 ng β or any other chimeric subunits) per oocyte. After injection, the oocytes were incubated in ND96 solution [33] for 3–4 days at 18 °C before recording.
The sulfhydryl-reactive reagent, sulforhodamine methanethiosulfonate (MTSR, Toronto Research Chemicals, North York, Ontario, Canada), was used to label 19′C residues. […] The oocytes were then transferred to the recording chamber and perfused with ND96 solution. The current was recorded by the two-electrode voltage clamp configuration and the recording electrode was filled with 3 M KCl. Cells were voltage-clamped at −40 mV. The fluorescence was recorded using the PhotoMax 200 photodiode detection system (Dagan Corp., Minneapolis, MN).
as §4

homomeric α1Y27′A GlyR = homomeric α1Y27′A GlyR (Homo sapiens, UniProt P23415, Y307A); details: HEK293
Method: as §1, §3

[1] = αWT β-αWT, HEK293, with glycine at EC50 of α1 homomer
[2] = αK24′A β-αWT, HEK293, with glycine at EC50 of α1 homomer

Chain of α19′C βWT GlyR (P23415 29-449 isoform P23415-2 C69A/R299C limits assumed): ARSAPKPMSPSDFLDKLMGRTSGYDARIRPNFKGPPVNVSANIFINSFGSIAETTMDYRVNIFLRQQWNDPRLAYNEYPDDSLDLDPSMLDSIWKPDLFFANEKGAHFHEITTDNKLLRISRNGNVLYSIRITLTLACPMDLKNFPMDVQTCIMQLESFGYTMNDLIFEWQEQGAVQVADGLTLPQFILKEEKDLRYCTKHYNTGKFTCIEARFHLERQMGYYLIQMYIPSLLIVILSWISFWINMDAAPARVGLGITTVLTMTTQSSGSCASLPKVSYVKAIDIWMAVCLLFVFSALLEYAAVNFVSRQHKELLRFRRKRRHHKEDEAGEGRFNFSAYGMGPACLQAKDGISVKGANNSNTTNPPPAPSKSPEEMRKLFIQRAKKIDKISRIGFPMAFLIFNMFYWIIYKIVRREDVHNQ
Chain of α19′C βWT GlyR (P48167 23-497 C137A/C313A): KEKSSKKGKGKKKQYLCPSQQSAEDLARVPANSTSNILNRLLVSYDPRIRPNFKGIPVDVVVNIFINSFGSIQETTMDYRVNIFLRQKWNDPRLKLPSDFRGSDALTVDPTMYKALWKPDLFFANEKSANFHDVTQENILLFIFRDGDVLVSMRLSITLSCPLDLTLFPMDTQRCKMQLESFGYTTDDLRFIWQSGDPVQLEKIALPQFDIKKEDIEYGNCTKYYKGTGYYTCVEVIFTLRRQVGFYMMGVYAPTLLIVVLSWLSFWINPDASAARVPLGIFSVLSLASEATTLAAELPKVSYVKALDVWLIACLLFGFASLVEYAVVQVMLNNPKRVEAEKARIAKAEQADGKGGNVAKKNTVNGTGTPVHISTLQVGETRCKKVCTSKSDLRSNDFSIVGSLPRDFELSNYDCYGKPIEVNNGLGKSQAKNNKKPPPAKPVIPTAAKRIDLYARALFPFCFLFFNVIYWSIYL
Chain of homomeric α1Y27′A GlyR (P23415 29-457 Y307A): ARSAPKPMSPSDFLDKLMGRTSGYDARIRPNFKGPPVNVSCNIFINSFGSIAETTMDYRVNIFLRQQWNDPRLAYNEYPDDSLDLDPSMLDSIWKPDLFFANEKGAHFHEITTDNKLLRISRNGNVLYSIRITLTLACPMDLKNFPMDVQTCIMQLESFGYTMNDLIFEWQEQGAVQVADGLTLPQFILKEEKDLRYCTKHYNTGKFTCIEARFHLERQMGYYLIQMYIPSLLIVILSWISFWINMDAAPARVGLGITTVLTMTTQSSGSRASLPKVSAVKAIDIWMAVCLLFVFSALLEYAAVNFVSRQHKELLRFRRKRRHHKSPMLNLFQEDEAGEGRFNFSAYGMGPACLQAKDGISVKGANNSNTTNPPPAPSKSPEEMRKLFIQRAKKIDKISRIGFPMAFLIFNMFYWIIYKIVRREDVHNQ

NCC(=O)O [glycine]
Imax (αWT β-αWT GlyR): 8.0±2.3 nA | nH (αWT β-αWT GlyR): 2.4±0.4 | Imax (αK24′A β-αWT GlyR): 8.9±1.9 nA | nH (αK24′A β-αWT GlyR): 2.0±0.3 | Current Imax (α19′C βWT GlyR): 3.51±0.24 µA | Current nH (α19′C βWT GlyR): 1.20±0.16 | Fluorescence Fmax (α19′C βWT GlyR): 9.42±0.53% | Fluorescence nH (α19′C βWT GlyR): 0.97±0.04 | glycine-induced current (homomeric α1Y27′A GlyR): no glycine-induced current was detected

picrotoxin [PTX]
10uM PTX inhibition (%) (αWT β-αWT GlyR; [1]): 8.5±1.9% | 100uM PTX inhibition (%) (αWT β-αWT GlyR; [1]): 26±2% | 10uM PTX inhibition (%) (αK24′A β-αWT GlyR; [2]): 10.0±2.2% | 100uM PTX inhibition (%) (αK24′A β-αWT GlyR; [2]): 23±4%

Source: article PMC3222680 (PLoS ONE, 2011)
